Test results as given in ChEMBL document CHEMBL5528002, “Identification of selective 5-LOX and FLAP inhibitors as novel anti-inflammatory agents by ligand-based virtual screening” (Eur J Med Chem, 2024).
Activity calls are given as the source filed them. The rule behind the calls is not given here.

Key:
[1] = target: T1, Polyunsaturated fatty acid 5-lipoxygenase (Homo sapiens) (UniProt P09917); experiment: Inhibition of human recombinant 5-LOX expressed in Escherichia coli BL21(DE3) assessed as enzyme remaining activity at 10 uM using arachidonic acid as substrate preincubated with compound for 15 mins followed by substrate and CaCl2 addition measured after 10 mins by RP-HPLC analysis relative to control; details: time 25.0 min
T1 sequence (whole entry): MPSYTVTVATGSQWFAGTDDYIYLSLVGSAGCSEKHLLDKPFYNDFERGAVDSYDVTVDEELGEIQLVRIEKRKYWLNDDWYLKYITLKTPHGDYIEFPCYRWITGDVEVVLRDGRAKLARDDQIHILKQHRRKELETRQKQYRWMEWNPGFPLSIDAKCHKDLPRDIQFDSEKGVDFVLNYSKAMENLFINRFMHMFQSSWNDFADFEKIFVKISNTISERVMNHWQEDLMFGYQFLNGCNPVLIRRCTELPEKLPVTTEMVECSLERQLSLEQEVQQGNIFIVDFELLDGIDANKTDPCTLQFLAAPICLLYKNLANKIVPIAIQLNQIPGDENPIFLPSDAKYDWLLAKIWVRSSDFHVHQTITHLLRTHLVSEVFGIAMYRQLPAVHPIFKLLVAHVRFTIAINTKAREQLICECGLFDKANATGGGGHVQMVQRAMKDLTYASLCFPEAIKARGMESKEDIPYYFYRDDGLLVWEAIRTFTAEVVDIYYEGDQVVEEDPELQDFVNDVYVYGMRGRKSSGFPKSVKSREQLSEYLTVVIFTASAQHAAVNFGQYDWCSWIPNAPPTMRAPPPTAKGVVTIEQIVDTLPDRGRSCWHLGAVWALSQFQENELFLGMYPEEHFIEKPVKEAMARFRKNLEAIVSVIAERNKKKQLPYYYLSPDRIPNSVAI

[2] = target: T1, Polyunsaturated fatty acid 5-lipoxygenase (Homo sapiens); experiment: Inhibition of 5-LOX in human Neutrophil assessed as enzyme remaining activity at 10 uM preincubated with compound for 15 mins followed by A23187 addition measured after 10 mins by RP-HPLC analysis relative to control; format: cell-based; details: time 25.0 min
[3] = target: T1, Polyunsaturated fatty acid 5-lipoxygenase (Homo sapiens); experiment: Inhibition of 5-LOX in human Neutrophil assessed as enzyme remaining activity at 10 uM using arachidonic acid as substrate preincubated with compound for 15 mins followed by substrate and A23187 addition measured after 10 mins by RP-HPLC analysis relative to control; format: cell-based; details: time 25.0 min
[4] = target: T2, Prostaglandin E synthase (Homo sapiens) (UniProt O14684); experiment: Inhibition of human mPGES-1 assessed as enzyme remaining activity at 10 uM relative to control
T2 sequence (whole entry): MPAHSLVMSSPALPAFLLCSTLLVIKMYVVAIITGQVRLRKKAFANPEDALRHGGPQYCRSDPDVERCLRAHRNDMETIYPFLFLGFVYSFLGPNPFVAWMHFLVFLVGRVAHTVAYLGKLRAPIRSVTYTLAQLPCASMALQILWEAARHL

[5] = target: T3, Bifunctional epoxide hydrolase 2 (Homo sapiens) (UniProt P34913); experiment: Inhibition of human sEH assessed as enzyme remaining activity at 10 uM relative to control
T3 sequence (whole entry): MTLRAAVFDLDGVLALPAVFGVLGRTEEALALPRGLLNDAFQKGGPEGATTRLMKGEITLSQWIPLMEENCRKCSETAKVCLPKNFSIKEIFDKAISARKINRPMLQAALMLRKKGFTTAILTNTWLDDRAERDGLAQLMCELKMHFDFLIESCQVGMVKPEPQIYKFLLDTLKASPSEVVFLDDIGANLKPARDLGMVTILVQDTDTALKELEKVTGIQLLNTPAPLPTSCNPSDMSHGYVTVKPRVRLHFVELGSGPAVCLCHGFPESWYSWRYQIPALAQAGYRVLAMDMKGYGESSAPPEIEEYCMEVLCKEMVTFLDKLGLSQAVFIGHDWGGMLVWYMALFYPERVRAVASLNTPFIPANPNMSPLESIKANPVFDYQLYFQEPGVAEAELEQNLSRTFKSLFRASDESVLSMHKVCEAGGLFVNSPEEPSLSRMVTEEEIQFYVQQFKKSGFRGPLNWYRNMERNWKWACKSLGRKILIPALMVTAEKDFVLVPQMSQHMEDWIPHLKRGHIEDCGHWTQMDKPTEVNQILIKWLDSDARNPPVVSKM

[6] = target: T4, Polyunsaturated fatty acid 5-lipoxygenase (Homo sapiens, UniProt P09917); experiment: Inhibition of human recombinant 5-LOX expressed in Escherichia coli BL21(DE3) using arachidonic acid as substrate preincubated with compound for 15 mins followed by substrate and CaCl2 addition measured after 10 mins by RP-HPLC analysis
T4 sequence (P09917 whole entry): T1 sequence (whole entry)

[7] = target: T4, Polyunsaturated fatty acid 5-lipoxygenase; experiment: Inhibition of 5-LOX in human Neutrophil using arachidonic acid as substrate preincubated with compound for 15 mins followed by substrate and A23187 addition measured after 10 mins by RP-HPLC analysis; format: cell-based
[8] = target: T1, Polyunsaturated fatty acid 5-lipoxygenase (Homo sapiens); experiment: Inhibition of 5-LOX in human Neutrophil at 10 uM preincubated with compound for 15 mins followed by A23187 addition measured after 10 mins by RP-HPLC analysis relative to control; format: cell-based; details: time 25.0 min
[9] = target: T1, Polyunsaturated fatty acid 5-lipoxygenase (Homo sapiens); experiment: Inhibition of 5-LOX in human Neutrophil at 10 uM using arachidonic acid as substrate preincubated with compound for 15 mins followed by substrate and A23187 addition measured after 10 mins by RP-HPLC analysis relative to control; format: cell-based; details: time 25.0 min
[10] = target: T3, Bifunctional epoxide hydrolase 2 (Homo sapiens); experiment: Inhibition of human sEH at 10 uM relative to control
[11] = target: T2, Prostaglandin E synthase (Homo sapiens); experiment: Inhibition of human mPGES-1 at 10 uM relative to control
[12] = Antioxidant activity assessed as DPPH radical scavenging activity at 10 uM incubated for 30 min by DPPH assay; format: functional
[13] = Antioxidant activity assessed as DPPH radical scavenging activity at 1 uM incubated for 30 min by DPPH assay; format: functional
Neutrophil [14] = experiment: Inhibition of ROS production in PMA-induced human Neutrophil cells at 1 uM incubated for 10 mins by DCFH-DA dye based fluorometric assay; format: functional, cell-based
Neutrophil [15] = experiment: Inhibition of ROS production in PMA-induced human Neutrophil cells at 10 uM incubated for 10 mins by DCFH-DA dye based fluorometric assay; format: functional, cell-based
[16] = target: T1, Polyunsaturated fatty acid 5-lipoxygenase (Homo sapiens); experiment: Inhibition of 5-LOX in human Neutrophil assessed as enzyme remaining activity at 30 nM preincubated with compound for 15 mins followed by A23187 addition measured after 10 mins by RP-HPLC analysis relative to control; format: cell-based; details: time 25.0 min
[17] = target: T1, Polyunsaturated fatty acid 5-lipoxygenase (Homo sapiens); experiment: Inhibition of 5-LOX in human Neutrophil assessed as enzyme remaining activity at 30 nM using arachidonic acid as substrate preincubated with compound for 15 mins followed by substrate and A23187 addition measured after 10 mins by RP-HPLC analysis relative to control; format: cell-based; details: time 25.0 min

Row | Structure (SMILES) | Activity [1] [%] | Activity [2] [%] | Activity [3] [%] | Activity [4] [%] | Activity [5] [%] | IC50 [6] [nM] | IC50 [7] [nM] | inhibition [8] | inhibition [9] | inhibition [10] [%] | inhibition [11] | Activity [12] | Activity [13] | inhibition (Neutrophil [14]) | inhibition (Neutrophil [15]) | Activity [16] [%] | Activity [17] [%]
1 | COC(=O)c1ccc(NCc2cc(O)c3ccccc3c2O)cc1 | 6.1 | 3.3 | 1.9 | 50.4 | 84.4 | 1100 | 1000 | > 50% | > 50% | > 35 | < 40% | Active | inactive | inactive | Active |  | 
2 | O=C1NC(=O)C(CCC(=O)c2ccc3ccccc3c2)C(=O)N1 | 86.1 | 63.3 | 94.8 | 77.5 | 83.3 |  |  | 37% | inactive | > 35 | inactive |  |  |  |  |  | 
3 | Nc1nc(N)c2cc([S+]([O-])c3ccc4ccccc4c3)ccc2n1 (configuration not stated) | 94.6 | 62 | 82.1 | 88.3 | 93.9 |  |  | 37% | inactive | > 35 | inactive |  |  |  |  |  | 
4 | O=C1Nc2ccccc2/C1=N\CCc1c[nH]c2ccccc12 | 69.1 | 73.5 | 42.8 | 30.4 | 92.8 |  |  | inactive | Active | > 35 | > 50% |  |  |  |  |  | 
5 | CC(C)c1ccc2c(c1)c(SC(C)(C)C)c(CC(C)(C)C(=O)O)n2Cc1ccc(Cl)cc1 |  |  |  | 45.8 |  |  |  |  |  |  |  |  |  |  |  | 1.5 | 7.8
6 | CC(=O)NC(CCc1ccc(Cl)c(Cl)c1)c1cccc(O)c(=O)c1 (configuration not stated) | 5.3 | 34.5 | 49.5 | 102 | 66.2 |  |  | > 50% | > 50% | > 35 | inactive | inactive | inactive | inactive | inactive |  | 
7 | N=C1OC(c2c[nH]c3ccc(OCc4ccccc4)cc23)C(O)=C1O (configuration not stated) | 95 | 56.1 | 92.3 | 56.8 | 86.7 |  |  | 37% | inactive | > 35 | < 40% |  |  |  |  |  | 
8 | CC1CCc2c(c(CC3CC(=O)NC(=O)C3)nn2-c2ccccc2)C1 (configuration not stated) | 91.7 | 95.6 | 101 | 89.6 | 86.2 |  |  | inactive |  | > 35 | inactive |  |  |  |  |  | 
9 | O=C1C/C(=C/c2cccc(OCc3ccccc3)c2)C(=O)N1 | 94.4 | 112 | 67.1 | 83.1 | 128 |  |  | inactive |  | > 35 | inactive |  |  |  |  |  | 
10 | Oc1nc(Cc2ccc3ccccc3n2)cc(-c2ccccc2)n1 | 68.1 | 53.9 | 111 | 55.8 | 91.6 |  |  | 37% | inactive | > 35 | inactive |  |  |  |  |  | 
